Key:
Experiment in all cases: Competitive isoTOP-ABPP in situ (fragment-treated cells)
Format in all cases: cell-based
[1] = biological target: T1, cysteines in MDA-MB-231 and Ramos cells (Homo sapiens, UniProt Q96RU2)
T1 sequence (Q96RU2 1-1077): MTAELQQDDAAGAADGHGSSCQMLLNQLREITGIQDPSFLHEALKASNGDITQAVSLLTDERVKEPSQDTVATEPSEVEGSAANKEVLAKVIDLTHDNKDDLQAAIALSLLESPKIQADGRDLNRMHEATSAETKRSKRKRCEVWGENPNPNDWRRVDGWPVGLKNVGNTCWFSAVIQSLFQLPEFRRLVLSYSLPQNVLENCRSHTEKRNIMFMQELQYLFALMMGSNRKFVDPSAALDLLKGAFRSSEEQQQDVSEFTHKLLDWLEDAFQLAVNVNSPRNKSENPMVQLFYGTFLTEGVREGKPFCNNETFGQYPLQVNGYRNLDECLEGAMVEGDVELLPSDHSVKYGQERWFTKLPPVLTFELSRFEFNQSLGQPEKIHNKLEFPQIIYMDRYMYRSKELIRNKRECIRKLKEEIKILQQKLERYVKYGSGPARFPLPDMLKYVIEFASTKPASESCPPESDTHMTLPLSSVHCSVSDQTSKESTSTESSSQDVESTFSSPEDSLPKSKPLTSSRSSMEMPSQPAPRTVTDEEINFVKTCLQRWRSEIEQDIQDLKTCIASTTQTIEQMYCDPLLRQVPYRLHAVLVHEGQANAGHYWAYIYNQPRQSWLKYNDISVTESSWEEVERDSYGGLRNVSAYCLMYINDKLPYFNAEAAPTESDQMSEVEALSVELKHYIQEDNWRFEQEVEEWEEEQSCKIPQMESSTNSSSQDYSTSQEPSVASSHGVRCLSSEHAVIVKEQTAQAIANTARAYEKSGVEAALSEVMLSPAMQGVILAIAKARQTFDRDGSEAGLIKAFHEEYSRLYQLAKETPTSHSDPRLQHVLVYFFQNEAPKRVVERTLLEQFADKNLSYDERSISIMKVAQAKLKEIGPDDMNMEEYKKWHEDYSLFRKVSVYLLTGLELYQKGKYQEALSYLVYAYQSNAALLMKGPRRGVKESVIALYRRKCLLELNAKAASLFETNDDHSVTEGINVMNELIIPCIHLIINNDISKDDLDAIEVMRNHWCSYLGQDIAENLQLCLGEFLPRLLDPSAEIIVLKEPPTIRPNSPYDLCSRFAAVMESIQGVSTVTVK

[2] = biological target: T2, cysteines in MDA-MB-231 and Ramos cells (Homo sapiens, UniProt Q9NP73)
T2 sequence (Q9NP73 1-1137): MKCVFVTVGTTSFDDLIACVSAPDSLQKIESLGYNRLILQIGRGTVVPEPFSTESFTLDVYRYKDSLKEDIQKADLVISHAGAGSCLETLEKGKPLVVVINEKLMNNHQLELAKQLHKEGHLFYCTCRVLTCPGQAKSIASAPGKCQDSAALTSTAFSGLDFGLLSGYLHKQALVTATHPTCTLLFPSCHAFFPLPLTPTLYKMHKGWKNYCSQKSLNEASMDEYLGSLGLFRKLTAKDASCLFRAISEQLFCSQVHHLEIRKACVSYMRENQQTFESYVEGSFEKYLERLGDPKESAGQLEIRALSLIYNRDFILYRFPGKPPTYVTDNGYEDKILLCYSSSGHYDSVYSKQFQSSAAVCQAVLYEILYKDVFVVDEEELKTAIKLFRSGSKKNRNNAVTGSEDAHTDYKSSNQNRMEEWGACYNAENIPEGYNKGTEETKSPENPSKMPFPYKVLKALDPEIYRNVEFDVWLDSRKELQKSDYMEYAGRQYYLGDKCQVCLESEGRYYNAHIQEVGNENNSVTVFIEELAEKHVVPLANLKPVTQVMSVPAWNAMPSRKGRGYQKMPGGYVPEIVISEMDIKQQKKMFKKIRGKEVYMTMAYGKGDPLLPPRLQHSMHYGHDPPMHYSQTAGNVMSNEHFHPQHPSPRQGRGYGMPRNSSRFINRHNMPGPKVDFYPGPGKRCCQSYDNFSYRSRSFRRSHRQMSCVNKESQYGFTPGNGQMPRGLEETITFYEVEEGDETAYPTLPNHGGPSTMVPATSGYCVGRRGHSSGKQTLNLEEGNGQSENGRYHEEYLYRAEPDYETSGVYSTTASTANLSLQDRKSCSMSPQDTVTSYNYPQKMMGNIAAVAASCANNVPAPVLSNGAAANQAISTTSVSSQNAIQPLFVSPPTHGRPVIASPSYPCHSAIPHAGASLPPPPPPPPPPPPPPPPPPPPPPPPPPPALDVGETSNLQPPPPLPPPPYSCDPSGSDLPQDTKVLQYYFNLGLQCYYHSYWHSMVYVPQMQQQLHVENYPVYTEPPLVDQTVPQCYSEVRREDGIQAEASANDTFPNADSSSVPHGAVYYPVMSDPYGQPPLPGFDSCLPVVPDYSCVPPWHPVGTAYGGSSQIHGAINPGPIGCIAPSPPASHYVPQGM

[3] = biological target: cysteines in MDA-MB-231 and Ramos cells (Homo sapiens, UniProt P51812)
cysteines in MDA-MB-231 and Ramos cells (Homo sapiens, UniProt P51812), sequence (P51812 whole entry): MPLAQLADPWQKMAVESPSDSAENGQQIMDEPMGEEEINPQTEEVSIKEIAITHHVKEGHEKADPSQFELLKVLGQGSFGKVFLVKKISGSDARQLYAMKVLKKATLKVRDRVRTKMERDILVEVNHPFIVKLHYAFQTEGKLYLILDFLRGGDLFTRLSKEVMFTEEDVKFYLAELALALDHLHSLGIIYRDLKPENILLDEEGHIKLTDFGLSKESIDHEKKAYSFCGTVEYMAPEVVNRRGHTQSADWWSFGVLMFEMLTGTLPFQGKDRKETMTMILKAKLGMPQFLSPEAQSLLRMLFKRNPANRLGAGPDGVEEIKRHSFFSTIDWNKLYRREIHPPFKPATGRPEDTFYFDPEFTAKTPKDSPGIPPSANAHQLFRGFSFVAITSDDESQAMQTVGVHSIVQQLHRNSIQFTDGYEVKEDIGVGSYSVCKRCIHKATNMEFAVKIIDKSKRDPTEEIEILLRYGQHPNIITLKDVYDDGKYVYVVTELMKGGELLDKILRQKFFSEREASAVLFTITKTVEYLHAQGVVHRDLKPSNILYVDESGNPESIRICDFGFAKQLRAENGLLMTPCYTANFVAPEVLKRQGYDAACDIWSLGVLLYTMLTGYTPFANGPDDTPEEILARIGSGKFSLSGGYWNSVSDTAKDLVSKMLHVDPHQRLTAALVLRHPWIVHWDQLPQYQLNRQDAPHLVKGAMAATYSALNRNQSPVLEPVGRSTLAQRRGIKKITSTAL

CC(C)CCOCCNC(=O)CCl [compound 27]
isoTOP-ABPP ratio, Q96RU2_C171 ([1]; 200 μM, insitu, 231): 1.1 | isoTOP-ABPP ratio Q9NP73_C86 ([2]; 200 μM, insitu, 231): 0.4

COc1cc2c(cc1OC)CN(C(=O)CCl)CC2 [compound 8]
isoTOP-ABPP reactivity Q96RU2_C171 USP28 ([1]; 200 μM, insitu, 231): 1.2

COc1ccc(C2CC(c3cccs3)=NN2C(=O)CCl)cc1 (stereo not drawn) [compound 4]
isoTOP-ABPP reactivity Q96RU2_C171 USP28 ([1]; 100 μM in situ 231): 20.0 | isoTOP-ABPP reactivity Q9NP73_C86 ALG13 ([2]; 100 μM in situ 231): 20.0

O=C(CCl)Nc1cccc2ncccc12 [compound 51]
isoTOP-ABPP ratio Q9NP73_C86 ([2]; 200 μM, insitu, 231): 1.3

COc1ccccc1OCCNC(=O)CCl [compound 28]
isoTOP-ABPP ratio, Q96RU2_C171 ([1]; 200 μM, insitu, 231): 1.1

CC1CCc2ccccc2N1C(=O)CCl (stereo not drawn) [compound 45]
isoTOP-ABPP ratio Q9NP73_C86 ([2]; 200 μM, insitu, 231): 20.0

Cc1ccc(C=C(C#N)C(=O)NCCN2CCOCC2)cc1 [compound 41]
isoTOP-ABPP ratio P51812_C436 ([3]; 200 μM, insitu, 231): 4.5 | isoTOP-ABPP ratio Q9NP73_C86 ([2]; 200 μM, insitu, 231): 0.5

COc1ccc2c(c1)CCCN2C(=O)CCl [compound 2]
isoTOP-ABPP reactivity Q9NP73_C86 ALG13 ([2]; 200 μM, insitu, 231): 20.0

C=CC(=O)Nc1cc(F)c(N2CCN(C(=O)OC(C)(C)C)CC2)c(F)c1 [compound 38]
isoTOP-ABPP ratio, Q96RU2_C171 ([1]; 200 μM, insitu, 231): 0.8 | isoTOP-ABPP ratio Q9NP73_C86 ([2]; 200 μM, insitu, 231): 1.3

O=C(CCl)NC(=O)NC12CC3CC(CC(C3)C1)C2 [compound 12]
isoTOP-ABPP ratio, cysteine P51812_C436 ([3]; 200 μM, insitu, 231): 1.4 | isoTOP-ABPP ratio, cysteine Q96RU2_C171 ([1]; 200 μM, insitu, 231): 20.0

Cn1cc(S(=O)(=O)N2CCOCC2)cc1C(=O)NC(=O)CCl [compound 11]
isoTOP-ABPP ratio, cysteine P51812_C436 ([3]; 100 μM in situ 231): 0.5 | isoTOP-ABPP ratio, cysteine Q96RU2_C171 ([1]; 100 μM in situ 231): 2.2 | isoTOP-ABPP ratio Q9NP73_C86 ([2]; 100 μM in situ 231): 0.7

O=C(CCl)NCCc1c[nH]c2ccccc12 [compound 13]
isoTOP-ABPP ratio, cysteine P51812_C436 ([3]; 200 μM, insitu, 231): 1.0 | isoTOP-ABPP ratio Q9NP73_C86 ([2]; 200 μM, insitu, 231): 0.9 | isoTOP-ABPP ratio Q9NP73_C86 ([2]; 200 μM, insitu, ramos): 1.4

O=C(CCl)N1CCN(CC(=O)N2CCOCC2)CC1 [compound 29]
isoTOP-ABPP ratio P51812_C436 ([3]; 200 μM, insitu, ramos): 1.3 | isoTOP-ABPP ratio Q9NP73_C86 ([2]; 200 μM, insitu, ramos): 2.0

O=C(CCl)N1CCC(Cc2ccccc2)CC1 [compound 9]
isoTOP-ABPP reactivity P51812_C436 RPS6KA3 ([3]; 200 μM, insitu, 231): 2.1

— patent US10670605B2, “Cysteine reactive probes and uses thereof” (The Scripps Research Institute, priority 2015, dated 2020)
